{"source": "patent US11571460B2", "about": "(priority 2017, dated 2023)", "key": {"[1]": {"test_system": "tumor-associated macrophages (TAM)", "assay": "Flow cytometry of tumor-associated macrophages in tumor tissue", "assay_type": "in vivo, mice", "method": "A tissue was dissociated by cutting the tumor into thin pieces and gently stirring in DNase I (1 U/ml; Roche, Indianapolis, trypsin-EDTA (Gibco)) under DMEM (Welgene) preheated at 37° C. for 1 hour. The tissue was mechanically dissociated in a 100 μm nylon mesh strainer, then single cells passed through a 40 μm nylon mesh strainer, and the spleen was mechanically dissociated with a 40 μm nylon mesh strainer. RBC was dissolved for 5 minutes in a 1× pharmlyse buffer.\nThe cells were stained with fluorescent tag antibodies. All data were detected by a FACS Calibur flow cytometer and analyzed with FlowJo software. CD45-FITC, CD3-FITC, CD4-PE, CD4-FITC, CD8-APC, CD11b-APC, CD11 c-PE, CD25 (CD12-FITC)-PE, CD25-APC, B220-FITC, CD19-PE, CD86-APC, and Foxp3-Alexa Fluor647 were purchased from BD bioscience and F4/80-PE and CD206-APC were purchased from Biolegend (San Diego, Calif., USA).\nLewis lung carcinoma cells were mixed with a Matrigel matrix (Coming, N.Y., USA) to generate a tumor model. Male C57BL/6 wild-type mice (6 to 8 weeks old) were inoculated subcutaneously in the right flank with 5×10^4 cells per mouse. […] Before 3 days of tumor injection, macrophage deficiency was performed by clodronate liposomes (first dose of 200 μl per mouse, maintenance dose of 100 μl intraperitoneally every 4 days). Clodronate liposome and control liposome were purchased from FormuMax (Sunnyvale, Calif., USA). A tumor size was monitored every 2 to 3 days by measuring two opposite diameters (volume=length×width×width/2). If the tumor size exceeded 5% of the body weight, the mice were sacrificed for a next experiment set. Thereafter, the tumor and the spleen were surgically removed."}, "[2]": {"assay": "Body weight of tumor-bearing mice", "assay_type": "in vivo", "method": "The weights of mice were measured every 2 to 3 days until 0 to 18 days."}, "[3]": {"test_system": "M1-type bone marrow-derived macrophages", "assay": "Intracellular ROS production by H2DCFDA staining", "assay_type": "cell-based, mouse", "conditions": "melittin-treated vs control, 24 hours", "method": "The cells were added with 5 μM C2′,7′-dichlorodihydrofluorescein diacetate (H2DCFDA; molecular probe) and cultured at 37° C. for 30 minutes. The H2DCFDA-containing medium was removed and the cells were washed twice with preheated PBS. After the cells were collected, ROS production levels were immediately analyzed using flow cytometry."}, "[4]": {"test_system": "bone marrow-derived macrophages (BMDM)", "assay": "ELISA of cytokines in BMDM culture supernatant", "assay_type": "cell-based, mouse", "method": "(§1) Cells were harvested as previously described to generate mouse bone marrow-derived macrophages. The cells were cultured for 7 days in an RPMI-1640 complete culture medium containing 10 ng/ml of mouse recombinant M-CSF (R & D systems, Minneapolis, Minn., USA). After the cells were differentiated into M0 macrophages, the cells were smeared in a 6-well plate (1×10^6 cells/well) and cultured overnight under 100 ng/ml LPS or 20 ng/ml mouse recombinant IL-4 (R & D system) to induce differentiation of M1 or M2 phenotype macrophages.\nThe secretion of cytokine from the culture medium was analyzed using an ELISA kit according to a procedure recommended by a provider. Mouse IL-10 and\nTNF-α were purchased from BD Biosciences, and TGF-β was purchased from R & D systems. Results were expressed as pg of normalized cytokine per mg of total protein."}, "[5]": {"test_system": "splenocytes", "assay": "Melittin binding study with rhodamine-bound melittin in splenocytes", "assay_type": "cell-based, mice", "method": "After 1 hour, cells were harvested and the non-binding peptides were washed twice.\nNext, the cells were cultured with rhodamine-bound peptides and stained with CD11b-APC antibodies as described above.\nAnnexin-V was added to a sample before data collection to distinguish dead cells. […] tumor-associated macrophage was stained with CD86-PEcy7 (e-bioscience) or CD206-PercpCy5.5 (Biolegend). The cells were detected in FACS Calibur or FACS CantoII."}, "[6]": {"test_system": "bone marrow-derived macrophages (BMDM)", "assay": "Western blot analysis of BMDM", "assay_type": "cell-based, mouse", "method": "as §1\nTotal proteins were extracted using a RIPA buffer from melittin or PBS treated-bone marrow-derived macrophages and quantified by Bio-Rad analysis. 20 μg of protein was isolated on an 8% SDS Tris-glycine gel and transferred to a nitro cellulose cell membrane (Invitrogen). The following antibodies and dilution factors were used: VEGF goat polyclonal antibody (sc-1836, 1:1000, Santa Cruz), actin goat polyclonal antibody (sc-1616, 1:1000, Santa Cruz), […] CD206 (MCA2235GA 1:200, AbD serotec), anti-goat IgG conjugated to HRP (SA007, 1:1000, GenDEPOT), and anti-rat IgG bound to HRP (405405, 1:1000, Biolegend). Protein bands were visualized using an ECL solution (GE healthcare) and measured with Image J software. The strength of the protein has been normalized above that of actin."}, "[7]": {"test_system": "Lewis lung carcinoma cells", "assay": "Quantitative real-time PCR in Lewis lung carcinoma cells", "assay_type": "cell-based", "conditions": "control vs melittin-treated", "method": "Quantitative real time PCR was performed according to previous reports. Data were expressed as […] for experimental genes, normalized to GAPDH, and expressed as a fold change compared to an LPS or IL-4 untreated control group. The following primers were used: Gapdh(for: […] (SEC) ID NO: 1); rev: […] (SEQ ID NO: 2)), Tnf-α(for: TTCTG […] (SEQ ID NO: 3); rev: GTAT […] (SEQ ID NO: 4), Mrc1/CD206(for: […] (SEQ ID NO: 5); rev: GGTT […] (SEQ ID NO: 6)), I1-10(for: […] (SEQ ID NO: 7); rev: […] (SEQ ID NO: 8)), Tgf-β(for: […] (SEQ ID NO: 9); rev: […] (SEQ ID NO: 10)), Vegf(for: GGAGA […] (SEQ ID NO: 11); rev: […](SEQ ID NO: 12)), F1t1/VEGFR1(for: […] (SEQ. ID NO: 13); rev: […] (SEQ ID NO: 14))."}}, "data": [{"smiles": "CC[C@H](C)[C@H](NC(=O)CN)C(=O)NCC(=O)N[C@@H](C)C(=O)N[C@H](C(=O)N[C@@H](CC(C)C)C(=O)N[C@@H](CCCCN)C(=O)N[C@H](C(=O)N[C@@H](CC(C)C)C(=O)N[C@H](C(=O)N[C@H](C(=O)NCC(=O)N[C@@H](CC(C)C)C(=O)N1CCC[C@H]1C(=O)N[C@@H](C)C(=O)N[C@@H](CC(C)C)C(=O)N[C@H](C(=O)N[C@@H](CO)C(=O)N[C@@H](Cc1c[nH]c2ccccc12)C(=O)N[C@H](C(=O)N[C@@H](CCCCN)C(=O)N[C@@H](CCCNC(=N)N)C(=O)N[C@@H](CCCCN)C(=O)N[C@@H](CCCNC(=N)N)C(=O)N[C@@H](CCC(N)=O)C(=O)N[C@@H](CCC(N)=O)C(N)=O)[C@@H](C)CC)[C@@H](C)CC)[C@@H](C)O)[C@@H](C)O)C(C)C)C(C)C", "note": "[melittin]", "values": [{"measurement": "percentage of CD11b+F4/80+ macrophages in CD45+ tumor-infiltrating leukocytes", "setting": "[1]; melittin-treated tumor-bearing mice", "value": "38.70±0.79", "unit": "%"}, {"measurement": "number of F4/80+CD86+ in CD45+ cells", "setting": "[1]; tumor, M1-type", "value": "not increased"}, {"measurement": "percentage of F4/80+CD206+ in CD45+ cells", "setting": "[1]; tumor, M2-type", "value": "9.53±0.63", "unit": "%"}, {"measurement": "weight of mice", "setting": "[2]; day 0", "value": "22.84±0.36"}, {"measurement": "weight of mice", "setting": "[2]; day 18", "value": "24.72±0.45"}, {"measurement": "weight loss", "setting": "[2]; measured every 2 to 3 days, 0 to 18 days", "value": "no weight loss"}, {"measurement": "intracellular ROS levels", "setting": "[3]", "value": "no difference"}, {"measurement": "protein level of TNF-α", "setting": "[4]; LPS stimulation", "value": "did not affect"}, {"measurement": "protein expression level of IL-10", "setting": "[4]; M2-type BMDM (IL-4)", "value": "not changed"}, {"measurement": "protein expression level of TGF-β", "setting": "[4]; M2-type BMDM (IL-4)", "value": "not changed"}, {"measurement": "melittin binding in CD11b+ cells", "setting": "[5]; 0.5 μg/ml rhodamine-bound melittin, 1 hour", "value": "approximately 16%"}, {"measurement": "percentage of melittin+CD86+ population in F4/80+ cells", "setting": "[5]; M1 type", "value": "3.27±0.39", "unit": "%"}, {"measurement": "percentage of melittin and CD206 double positive population in F4/80+ cells", "setting": "[5]; M2 type", "value": "9.15±1.05", "unit": "%"}, {"measurement": "melittin binding to DC (CD11c)", "setting": "[5]; rhodamine-bound melittin", "value": "24.44±0.56"}, {"measurement": "melittin binding to macrophages (F4/80) in annexinli-CD11b+ melittin+ cells", "setting": "[5]; rhodamine-bound melittin", "value": "67.70±2.96"}, {"measurement": "melittin binding to neutrophils (Gr-1)", "setting": "[5]; rhodamine-bound melittin", "value": "36.36±0.95"}, {"measurement": "expression level of CD206 protein", "setting": "[6]", "value": "reduced"}, {"measurement": "expression level of VEGF protein", "setting": "[6]", "value": "reduced"}, {"measurement": "mRNA level of Vegf", "setting": "[7]", "value": "no large difference"}, {"measurement": "mRNA level of flt1/VFGFR", "setting": "[7]", "value": "no large difference"}]}]}
